Source: US8536332B2, “Modulating signal transduction pathways with substituted pyridol [2,3-b] pyrazines” (Aeterna Zentaris GmbH, priority 2007, dated 2013)

SMILES | melting point [°C]
CCNC(=O)Nc1cnc2ccc(-c3ccc(OC(F)(F)F)c(F)c3)nc2n1 [Compound 640, 1-Ethyl-3-[6-(3-fluoro-4-trifluoromethoxy-phenyl)-pyrido[2,3-b]pyrazin-3-yl]-urea] | 262
COc1cc(-c2ccc3ncc(NC(=O)NC4CCN(C(=O)OCc5ccccc5)CC4)nc3n2)ccc1O [Compound 606, 4-{3-[6-(4-Hydroxy-3-methoxy-phenyl)-pyrido[2,3-b]pyrazin-3-yl]-ureido}-piperidine-1-carboxylic acid benzyl ester] | 210 to 212
COc1ccc(-c2ccc3ncc(NC(=O)NC4CCN(C(=O)C(F)(F)F)CC4)nc3n2)cc1OC [Compound 581, 1-[6-(3,4-Dimethoxy-phenyl)-pyrido[2,3-b]pyrazin-3-yl]-3-[1-(2,2,2-trifluoro-acetyl)-piperidin-4-yl]-urea] | 239 to 242
COc1ccc(-c2ccc3ncc(NC(=O)Nc4c(C)noc4C)nc3n2)cc1OC [Compound 573, 1-[6-(3,4-Dimethoxy-phenyl)-pyrido[2,3-b]pyrazin-3-yl]-3-(3,5-dimethyl-isoxazol-4-yl)-urea] | 265 to 267
CCNC(=O)Nc1ccc2ncc(-c3ccc(NC(C)=O)c(OC)c3)nc2n1 [Compound 77, N-{4-[6-(3-Ethyl-ureido)-pyrido[2,3-b]pyrazin-3-yl]-2-methoxy-phenyl}-acetamide] | > 300
COCCCNC(=S)Nc1ccc2ncc(Nc3cc(OC)c(OC)c(OC)c3)nc2n1 [Compound 710, 1-(3-Methoxy-propyl)-3-[3-(3,4,5-trimethoxy-phenylamino)-pyrido[2,3-b]pyrazin-6-yl]-thiourea] | 246
CCNC(=O)Nc1ccc2ncc(-c3cccc(F)c3)nc2n1 [Compound 129, 1-Ethyl-3-[3-(3-fluoro-phenyl)-pyrido[2,3-b]pyrazin-6-yl]-urea] | 283 to 286
CCNC(=O)Nc1ccc2ncc(-c3cc(Cl)cc(Cl)c3)nc2n1 [Compound 90, 1-[3-(3,5-Dichloro-phenyl)-pyrido[2,3-b]pyrazin-6-yl]-3-ethyl-urea] | 298 to 305
O=C(Nc1cnc2ccc(-c3cc(Cl)c(O)c(Cl)c3)nc2n1)NC1CCCCC1 [Compound 558, 1-Cyclohexyl-3-[6-(3,5-dichloro-4-hydroxy-phenyl)-pyrido[2,3-b]pyrazin-3-yl]-urea] | 272 to 275
COc1cc(-c2ccc3ncc(NC(=S)NC4CCCCCCC4)nc3n2)ccc1O [Compound 653, 1-Cyclooctyl-3-[6-(4-hydroxy-3-methoxy-phenyl)-pyrido[2,3-b]pyrazin-3-yl]-thiourea] | 250 to 251
COc1cc(-c2ccc3ncc(NC(=O)N(C)c4ccc(C(C)C)cc4)nc3n2)ccc1O [Compound 635, 3-[6-(4-Hydroxy-3-methoxy-phenyl)-pyrido[2,3-b]pyrazin-3-yl]-1-(4-isopropyl-phenyl)-1-methyl-urea] | 226 to 228
CCNC(=S)Nc1cnc2ccc(Nc3ccc(O)c(Cl)c3)nc2n1 [Compound 208, 1-[6-(3-Chloro-4-hydroxy-phenylamino)-pyrido[2,3-b]pyrazin-3-yl]-3-ethyl-thiourea] | 203
COc1cc(Nc2cnc3ccc(NC(=S)NC(C)(C)C)nc3n2)cc(OC)c1OC [Compound 694, 1-tert-Butyl-3-[3-(3,4,5-trimethoxy-phenylamino)-pyrido[2,3-b]pyrazin-6-yl]-thiourea] | 218 to 220
CCNC(=O)Nc1ccc2ncc(-c3ccn[nH]3)nc2n1 [Compound 52, 1-Ethyl-3-[3-(2H-pyrazol-3-yl)-pyrido[2,3-b]pyrazin-6-yl]-urea] | 218 to 220
CCNC(=O)Nc1ccc2ncc(-c3cc(Cl)c(OS(C)(=O)=O)c(OC)c3)nc2n1 [Compound 37, Methanesulfonic acid 2-chloro-4-[6-(3-ethyl-ureido)-pyrido[2,3-b]pyrazin-3-yl]-6-methoxy-phenyl ester] | 247 to 249
CCNC(=O)Nc1ccc2ncc(-c3cc(Cl)ccc3OC)nc2n1 [Compound 91, 1-[3-(5-Chloro-2-methoxy-phenyl)-pyrido[2,3-b]pyrazin-6-yl]-3-ethyl-urea] | 254 to 257
CCNC(=O)Nc1ccc2ncc(Nc3ccc4c(c3)OC(F)(F)O4)nc2n1 [Compound 42, 1-[3-(2,2-Difluoro-benzo[1,3]dioxol-5-ylamino)-pyrido[2,3-b]pyrazin-6-yl]-3-ethyl-urea] | 238 to 241
COc1ccc(-c2ccc3ncc(NC(=O)Nc4ccc(N5C(=O)C=CC5=O)cc4)nc3n2)cc1OC [Compound 579, 1-[6-(3,4-Dimethoxy-phenyl)-pyrido[2,3-b]pyrazin-3-yl]-3-[4-(2,5-dioxo-2,5-dihydro-pyrrol-1-yl)-phenyl]-urea] | 279 to 283
COc1cc(-c2ccc3ncc(NC(=O)NCc4ccccc4)nc3n2)ccc1O [Compound 29, 1-Benzyl-3-[6-(4-hydroxy-3-methoxy-phenyl)-pyrido[2,3-b]pyrazin-3-yl]-urea] | 229 to 231
O=C(Nc1cnc2ccc(-c3cc(Cl)c(O)c(Cl)c3)nc2n1)NC1CCCCCCC1 [Compound 556, 1-Cyclooctyl-3-[6-(3,5-dichloro-4-hydroxy-phenyl)-pyrido[2,3-b]pyrazin-3-yl]-urea] | 261 to 263

SMILES | melting point [°C]
CN(C)c1ccc(NC(=O)Nc2cnc3ccc(-c4cc(Cl)c(O)c(Cl)c4)nc3n2)cc1 [Compound 555, 1-[6-(3,5-Dichloro-4-hydroxy-phenyl)-pyrido[2,3-b]pyrazin-3-yl]-3-(4-dimethylamino-phenyl)-urea] | 259 to 262
CCNC(=O)Nc1ccc2ncc(Nc3cccc(Oc4ccccc4)c3)nc2n1 [Compound 155, 1-Ethyl-3-[3-(3-phenoxy-phenylamino)-pyrido[2,3-b]pyrazin-6-yl]-urea] | 230
COc1ccc(-c2ccc3ncc(NC(=O)Nc4ccc(N(C)C)cc4)nc3n2)cc1OC [Compound 569, 1-[6-(3,4-Dimethoxy-phenyl)-pyrido[2,3-b]pyrazin-3-yl]-3-(4-dimethylamino-phenyl)-urea] | 262 to 263
COc1ccc(-c2ccc3ncc(NC(=O)NC(C)(C)C)nc3n2)cc1OC [Compound 568, 1-tert-Butyl-3-[6-(3,4-dimethoxy-phenyl)-pyrido[2,3-b]pyrazin-3-yl]-urea] | 230 to 233
COc1cc(-c2ccc3ncc(NC(=O)Nc4ccc(C#N)cc4)nc3n2)ccc1O [Compound 626, 1-(4-Cyano-phenyl)-3-[6-(4-hydroxy-3-methoxy-phenyl)-pyrido[2,3-b]pyrazin-3-yl]-urea] | 259 to 261
CCNC(=O)Nc1cnc2ccc(-c3ccc(O)c(Br)c3)nc2n1 [Compound 641, 1-[6-(3-Bromo-4-hydroxy-phenyl)-pyrido[2,3-b]pyrazin-3-yl]-3-ethyl-urea] | 291
CCNC(=O)Nc1cnc2ccc(Nc3ccc(O)c(Cl)c3)nc2n1 [Compound 31, 1-[6-(3-Chloro-4-hydroxy-phenylamino)-pyrido[2,3-b]pyrazin-3-yl]-3-ethyl-urea] | 277 to 280
CCNC(=S)Nc1ccc2ncc(Nc3ccc(O)cc3)nc2n1 [Compound 161, 1-Ethyl-3-[3-(4-hydroxy-phenylamino)-pyrido[2,3-b]pyrazin-6-yl]-thiourea] | 262
COc1ccc(-c2ccc3ncc(NC(=O)Nc4ccccc4)nc3n2)cc1OC [Compound 580, 1-[6-(3,4-Dimethoxy-phenyl)-pyrido[2,3-b]pyrazin-3-yl]-3-phenyl-urea] | 248 to 251
CCNC(=O)Nc1cnc2ccc(NCC3CC3)nc2n1 [Compound 231, 1-[6-(Cyclopropylmethyl-amino)-pyrido[2,3-b]pyrazin-3-yl]-3-ethyl-urea] | 201 to 203
CCNC(=O)Nc1ccc2ncc(-c3ccccc3C(F)(F)F)nc2n1 [Compound 97, 1-Ethyl-3-[3-(2-trifluoromethyl-phenyl)-pyrido[2,3-b]pyrazin-6-yl]-urea] | 240 to 243
CCNC(=O)Nc1ccc2ncc(-c3ccc(N(c4ccccc4)c4ccccc4)cc3)nc2n1 [Compound 128, 1-[3-(4-Diphenylamino-phenyl)-pyrido[2,3-b]pyrazin-6-yl]-3-ethyl-urea] | 269 to 273
CCNC(=O)Nc1cnc2ccc(-c3cccc(OC(C)C)c3)nc2n1 [Compound 177, 1-Ethyl-3-[6-(3-isopropoxy-phenyl)-pyrido[2,3-b]pyrazin-3-yl]-urea] | 234 to 237
CCNC(=O)Nc1ccc2ncc(-c3cccc(-c4ccccc4)c3)nc2n1 [Compound 116, 1-(3-Biphenyl-3-yl-pyrido[2,3-b]pyrazin-6-yl)-3-ethyl-urea] | 251 to 255
CCNC(=O)Nc1cnc2ccc(-c3cccc(N)c3)nc2n1 [Compound 179, 1-[6-(3-Amino-phenyl)-pyrido[2,3-b]pyrazin-3-yl]-3-ethyl-urea] | > 320
CCNC(=O)Nc1ccc2ncc(-c3cccc(Cl)c3)nc2n1 [Compound 111, 1-[3-(3-Chloro-phenyl)-pyrido[2,3-b]pyrazin-6-yl]-3-ethyl-urea] | 262 to 264
CCNC(=O)Nc1ccc2ncc(-c3cc(OC)ccc3OC)nc2n1 [Compound 145, 1-[3-(2,5-Dimethoxy-phenyl)-pyrido[2,3-b]pyrazin-6-yl]-3-ethyl-urea] | 207 to 209
COc1cc(Nc2cnc3ccc(NC(=S)NCCN4CCOCC4)nc3n2)cc(OC)c1OC [Compound 703, 1-(2-Morpholin-4-yl-ethyl)-3-[3-(3,4,5-trimethoxy-phenylamino)-pyrido[2,3-b]pyrazin-6-yl]-thiourea] | 196
COc1cc(-c2ccc3ncc(NC(=O)Nc4ccc(N(C)C)cc4)nc3n2)ccc1O [Compound 602, 1-(4-Dimethylamino-phenyl)-3-[6-(4-hydroxy-3-methoxy-phenyl)-pyrido[2,3-b]pyrazin-3-yl]-urea] | 287 to 290
COc1cc(-c2ccc3ncc(NC(=O)NCCCCc4ccccc4)nc3n2)ccc1O [Compound 630, 1-[6-(4-Hydroxy-3-methoxy-phenyl)-pyrido[2,3-b]pyrazin-3-yl]-3-(4-phenyl-butyl)-urea] | 208 to 210
